Measurements: paper PMC4466525, “Design, Synthesis and Structure-Activity Relationship Studies of Novel Survivin Inhibitors with Potent Anti-Proliferative Properties” (PLoS ONE, 2015)
Like-named read-outs stand apart in the source and are kept apart here.

What was measured:
PC-3 = assay: Cell viability (MTS) anti-proliferative assay, PC-3; assay type: cell-based; conditions: PC-3 human prostate cancer, 48 h treatment, n = 4, read-out: IC50 values ± SEM, PC-3
Description: (§1) The anti-proliferative effect of UC-112 and its analogs were tested in human melanoma (A375, M14 and M14/LCC6MDR1) and human prostate cancer (PC-3) cell lines. All the cell lines were purchased from ATCC (American Type Culture Collection, Manassas, VA). The cancer cells were cultured using the supplemented cell culture medium as described before at 37°C in a humidified atmosphere containing 5% CO2. 5000 cells in logarithm growing phase were seeded overnight into each well of a 96-well plate. Then the cells were continuously incubated with sequential diluted compound solution (10 nM to 100 μM, 100 μl per well) in cell culture medium.

M14 = assay: Cell viability (MTS) anti-proliferative assay, M14; assay type: cell-based; conditions: M14 human melanoma, 48 h treatment, n = 4, read-out: IC50 values ± SEM, M14
Description: as §1

M14/LCC6MDR1 = assay: Cell viability (MTS) anti-proliferative assay, multidrug-resistant M14/LCC6MDR1; assay type: cell-based, human; conditions: for IC50: multidrug-resistant M14/LCC6MDR1 melanoma, 48 h treatment, MTS, n = 4, read-out: IC50 values ± SEM, M14/LCC6MDR1; for Resistance Index: IC50 on M14/LCC6MDR1 divided by IC50 on parental M14
Description: as §1

A375 = assay: Cell viability (MTS) anti-proliferative assay, A375; assay type: cell-based; conditions: A-375, A375 human melanoma, 48 h treatment, n = 4, read-out: IC50 values ± SEM, A375
Description: as §1

NCI-60 cell lines = assay: NCI-60 cell line screening (SRB), whole panel; assay type: cell-based, human; conditions: for Activity in NCI-60 one-concentration screening: 10 μM
Description: Four compounds including the parental compound UC-112 were submitted to National Cancer Institute for its NCI-60 cell line screening, initially tested at one concentration (10 μM), and subsequently selected for full five concentration testing following the standard protocols disclosed by NCI [34]. In brief, cells were plated into 96 well micro-titer plates 24 h prior to the treatment of compound solution for 48 h, then the cell viability was read out through absorbance of sulforhodamine B (SRB) staining.

caspase 3/7 = assay: Caspase 3/7 functional assay (Caspase-Glo 3/7); assay type: cell-based, human; conditions: 1 μM, 24 h, A375 or PC-3 cells, N = 3
Description: The caspase 3/7 activity of cancer cells treated by DMSO control or compound of interest was analyzed using Glo Caspase-Glo 3/7 kit from Promega Corporation (Madison, WI) as per manufacturer’s instructions in similar protocol as described before. The readings of relative luminescence unit were normalized by the cell viability read from the same well determined by compatible CytoTox-Fluor Cytotoxicity assay kit (Promega, WI).

IC50 (PC-3) | IC50 (A375) | Compound | IC50 (M14) | IC50 (M14/LCC6MDR1; Homo sapiens, 48 h) | Resistance Index (M14/LCC6MDR1) | Activity in NCI-60 one-concentration screening (NCI-60 cell lines) | Caspase 3/7 activation relative to DMSO control group (caspase 3/7) | IC50 (M14/LCC6MDR1) | GI50 (NCI-60 cell lines; Homo sapiens, five dose testing, 48 h, SRB, read-out: Average GI50 over all cancer cell lines in the NCI-60 panel)
27500 ± 2000 nM | 2700 ± 300 nM | Oc1c(CN2CCCC2)cc(COCc2ccco2)c2cccnc12 [6a, 5-((furan-2-ylmethoxy)methyl)-7-(pyrrolidin-1-ylmethyl)quinolin-8-ol] | 3100 ± 300 nM | 15300 ± 3100 nM | 4.9 | – | – | – | –
3400 ± 700 nM | 2500 ± 500 nM | Oc1c(CN2CCCC2)cc(COCc2cccs2)c2cccnc12 [6b, 7-(pyrrolidin-1-ylmethyl)-5-((thiophen-2-ylmethoxy)methyl)quinolin-8-ol] | 1900 ± 900 nM | 4200 ± 200 nM | 2.2 | – | – | – | –
> 30000 nM | 8400 ± 1500 nM | Oc1c(CN2CCCC2)cc(COCc2ccccn2)c2cccnc12 [6c, 5-((pyridin-2-ylmethoxy)methyl)-7-(pyrrolidin-1-ylmethyl)quinolin-8-ol] | 8000 ± 2200 nM | > 30000 nM | >3.8 | – | – | – | –
– | 1000 ± 100 nM | Oc1c(CN2CCCC2)cc(COCC2CCCCC2)c2cccnc12 [6d, 5-((cyclohexylmethoxy)methyl)-7-(pyrrolidin-1-ylmethyl)quinolin-8-ol] | 1300 ± 600 nM | – | – | – | – | – | –
– | 6100 ± 700 nM | CCOCc1cc(CN2CCCC2)c(O)c2ncccc12 [6e, 5-(ethoxymethyl)-7-(pyrrolidin-1-ylmethyl)quinolin-8-ol] | 5100 ± 2100 nM | – | – | – | – | – | –
– | 5000 ± 300 nM | CCCOCc1cc(CN2CCCC2)c(O)c2ncccc12 [6f, 5-(propoxymethyl)-7-(pyrrolidin-1-ylmethyl)quinolin-8-ol] | 5900 ± 1200 nM | – | – | – | – | – | –
1300 ± 300 nM | 1100 ± 100 nM | Oc1c(CN2CCCCC2)cc(COCc2ccccc2)c2cccnc12 [8a, 5-((benzyloxy)methyl)-7-(piperidin-1-ylmethyl)quinolin-8-ol] | 1300 ± 200 nM | 2100 ± 600 nM | 1.6 | – | – | – | –
– | 5000 ± 1600 nM | Oc1c(CN2CCOCC2)cc(COCc2ccccc2)c2cccnc12 [8b, 5-((benzyloxy)methyl)-7-(morpholinomethyl)quinolin-8-ol] | 4800 ± 500 nM | 3500 ± 1000 nM | 0.7 | – | – | – | –
– | 2800 ± 900 nM | Oc1c(CN2CCCC2)cc(COCCc2ccccc2)c2cccnc12 [10a, 5-(phenethoxymethyl)-7-(pyrrolidin-1-ylmethyl)quinolin-8-ol] | 2900 ± 200 nM | 15000 to 20000 nM | 5.2 | – | – | 15000 ± 2500 nM | –
– | 2400 ± 700 nM | Oc1c(CN2CCCC2)cc(COCCCc2ccccc2)c2cccnc12 [10b, 5-((3-phenylpropoxy)methyl)-7-(pyrrolidin-1-ylmethyl)quinolin-8-ol] | 2300 ± 800 nM | 15000 to 20000 nM | 8.7 | – | – | 20000 ± 1600 nM | –
1100 ± 100 nM | 1400 ± 300 nM | Oc1c(CN2CCCC2)cc(CSCc2ccccc2)c2cccnc12 [12a, 5-((benzylthio)methyl)-7-(pyrrolidin-1-ylmethyl)quinolin-8-ol] | 1400 ± 200 nM | 2900 ± 600 nM | 2.1 | good activity | up to 4 folds | – | –
2500 ± 600 nM | 7100 ± 700 nM | CN(Cc1ccccc1)Cc1cc(CN2CCCC2)c(O)c2ncccc12 [12b, 5-((benzyl(methyl)amino)methyl)-7-(pyrrolidin-1-ylmethyl)quinolin-8-ol] | 6200 ± 1400 nM | 8000 ± 1000 nM | 1.3 | – | – | – | –
1600 ± 1000 nM | 1900 ± 600 nM | Oc1c(CN2CCCC2)cc(COCc2ccccc2)c2cccnc12 [UC-112, 5-((benzyloxy)methyl)-7-(pyrrolidin-1-ylmethyl)quinolin-8-ol, reference compound] | 2100 ± 300 nM | 3200 ± 500 nM | 1.5 | good activity | – | – | 2200 nM

More lines, now with the values behind:

Compound | IC50 (PC-3) | IC50 (A375) | IC50 (M14) | IC50 (M14/LCC6MDR1; Homo sapiens, 48 h) | Resistance Index (M14/LCC6MDR1) | Activity in NCI-60 one-concentration screening (NCI-60 cell lines) | Caspase 3/7 activation relative to DMSO control group (caspase 3/7) | IC50 (M14/LCC6MDR1) | GI50 (NCI-60 cell lines; Homo sapiens, five dose testing, 48 h, SRB, read-out: Average GI50 over all cancer cell lines in the NCI-60 panel)
Oc1c(CN2CCCC2)cc(COCc2ccc(F)cc2)c2cccnc12 [4a, 5-(((4-fluorobenzyl)oxy)methyl)-7-(pyrrolidin-1-ylmethyl)quinolin-8-ol] | 700 ± 200 nM | 1500 ± 200 nM | 1800 ± 300 nM | 4400 ± 700 nM | 2.4 | – | – | – | –
Oc1c(CN2CCCC2)cc(COCc2ccc(Cl)cc2)c2cccnc12 [4b, 5-(((4-chlorobenzyl)oxy)methyl)-7-(pyrrolidin-1-ylmethyl)quinolin-8-ol] | 900 ± 100 nM | 1500 ± 300 nM | 1100 ± 100 nM | 2400 ± 500 nM | 2.2 | – | – | – | –
Oc1c(CN2CCCC2)cc(COCc2ccc(Br)cc2)c2cccnc12 [4c, 5-(((4-bromobenzyl)oxy)methyl)-7-(pyrrolidin-1-ylmethyl)quinolin-8-ol] | 700 ± 300 nM | 900 ± 200 nM | 1000 ± 200 nM | 1800 ± 600 nM | 1.8 | good activity | up to 4 folds | – | –
Oc1c(CN2CCCC2)cc(COCc2ccc(C(F)(F)F)cc2)c2cccnc12 [4d, 7-(pyrrolidin-1-ylmethyl)-5-(((4-(trifluoromethyl)benzyl)oxy)methyl)quinolin-8-ol] | 1000 ± 100 nM | 900 ± 300 nM | 1000 ± 400 nM | 1900 ± 500 nM | 1.9 | – | – | – | –
Cc1ccc(COCc2cc(CN3CCCC3)c(O)c3ncccc23)cc1 [4e, 5-(((4-methylbenzyl)oxy)methyl)-7-(pyrrolidin-1-ylmethyl)quinolin-8-ol] | 1100 ± 200 nM | 1700 ± 300 nM | 2300 ± 500 nM | 4100 ± 2000 nM | 1.8 | – | – | – | –
CC(C)(C)c1ccc(COCc2cc(CN3CCCC3)c(O)c3ncccc23)cc1 [4h, 5-(((4-(tert-butyl)benzyl)oxy)methyl)-7-(pyrrolidin-1-ylmethyl)quinolin-8-ol] | 1500 ± 300 nM | 1100 ± 400 nM | – | 1500 ± 700 nM | – | – | – | – | –
COc1ccc(COCc2cc(CN3CCCC3)c(O)c3ncccc23)cc1 [4i, 5-(((4-methoxybenzyl)oxy)methyl)-7-(pyrrolidin-1-ylmethyl)quinolin-8-ol] | 1000 ± 400 nM | 1800 ± 200 nM | 1500 ± 400 nM | 3800 ± 600 nM | 2.5 | – | – | – | –
Oc1c(CN2CCCC2)cc(COCc2ccc(OCc3ccccc3)cc2)c2cccnc12 [4j, 5-(((4-(benzyloxy)benzyl)oxy)methyl)-7-(pyrrolidin-1-ylmethyl)quinolin-8-ol] | – | 2800 ± 100 nM | – | 12100 ± 500 nM | – | – | – | – | –
CC(=O)Nc1ccc(COCc2cc(CN3CCCC3)c(O)c3ncccc23)cc1 [4k, N-(4-(((8-hydroxy-7-(pyrrolidin-1-ylmethyl)quinolin-5-yl)methoxy)methyl)phenyl)acetamide] | – | 4700 ± 800 nM | – | 5500 ± 1300 nM | – | – | – | – | –
COc1cc(COCc2cc(CN3CCCC3)c(O)c3ncccc23)cc(OC)c1OC [4l, 7-(pyrrolidin-1-ylmethyl)-5-(((3,4,5-trimethoxybenzyl)oxy)methyl)quinolin-8-ol] | 1600 ± 300 nM | 2800 ± 400 nM | 3600 ± 1000 nM | > 30000 nM | > 8.3 | – | – | – | –
CCCCOCc1cc(CN2CCCC2)c(O)c2ncccc12 [6g, 5-(butoxymethyl)-7-(pyrrolidin-1-ylmethyl)quinolin-8-ol] | – | 3000 ± 500 nM | 4900 ± 1300 nM | – | – | – | – | – | –
COCCn1c2c([n+](Cc3cnccn3)c1C)C(=O)c1ccccc1C2=O [YM-155, reference compound] | – | – | 3 nM | > 10000 nM | higher than 2941 | – | – | – | –
